Legend:
Type in all cases: biochemical
Conditions in all cases: liver microsomes
CYP2E1 (HLM) = CYP2E1 (HLM) (Homo sapiens, UniProt P05181); experiment: cocktail probe-substrate assay, HPLC
CYP1A2 (HLM) = target: T1, CYP1A2 (HLM) (Homo sapiens, UniProt P05177); experiment: cocktail probe-substrate assay, HPLC
T1 sequence (P05177 2-516): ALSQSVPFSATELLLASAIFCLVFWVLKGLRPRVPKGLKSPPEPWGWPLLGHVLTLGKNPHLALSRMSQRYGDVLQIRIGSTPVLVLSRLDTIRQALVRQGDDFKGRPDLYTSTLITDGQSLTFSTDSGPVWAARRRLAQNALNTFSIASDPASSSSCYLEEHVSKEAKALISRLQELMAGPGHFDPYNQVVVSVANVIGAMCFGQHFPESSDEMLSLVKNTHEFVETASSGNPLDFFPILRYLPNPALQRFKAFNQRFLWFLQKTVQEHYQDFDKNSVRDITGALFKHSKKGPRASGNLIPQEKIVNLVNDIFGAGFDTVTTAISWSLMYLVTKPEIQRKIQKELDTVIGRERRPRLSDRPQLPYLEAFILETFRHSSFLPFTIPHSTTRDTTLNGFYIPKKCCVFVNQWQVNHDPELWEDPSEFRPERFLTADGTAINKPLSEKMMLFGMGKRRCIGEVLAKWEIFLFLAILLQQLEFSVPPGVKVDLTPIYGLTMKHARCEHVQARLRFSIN

CYP3A4 (HLM) = CYP3A4 (HLM) (Homo sapiens, UniProt P08684); experiment: cocktail probe-substrate assay, HPLC
CYP3A4 (HLM), sequence (P08684 2-503): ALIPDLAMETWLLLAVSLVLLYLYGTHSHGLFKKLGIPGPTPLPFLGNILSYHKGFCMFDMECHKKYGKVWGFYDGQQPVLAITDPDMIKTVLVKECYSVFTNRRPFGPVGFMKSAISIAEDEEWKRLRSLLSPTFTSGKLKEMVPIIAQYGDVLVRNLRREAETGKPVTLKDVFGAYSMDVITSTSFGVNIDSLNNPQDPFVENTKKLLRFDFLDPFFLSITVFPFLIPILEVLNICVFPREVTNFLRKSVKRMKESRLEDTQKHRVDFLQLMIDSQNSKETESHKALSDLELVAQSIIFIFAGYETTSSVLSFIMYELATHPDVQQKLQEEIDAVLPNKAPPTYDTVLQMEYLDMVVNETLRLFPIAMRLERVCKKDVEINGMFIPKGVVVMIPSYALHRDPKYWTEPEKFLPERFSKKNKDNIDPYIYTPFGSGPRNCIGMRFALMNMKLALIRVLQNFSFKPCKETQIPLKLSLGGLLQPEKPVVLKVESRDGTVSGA

CYP2D6 (HLM) [1] = target: T2, CYP2D6 (HLM) (Homo sapiens, UniProt P10635); experiment: HPLC-MS/MS of alpha-hydroxymetoprolol
T2 sequence (P10635 whole entry): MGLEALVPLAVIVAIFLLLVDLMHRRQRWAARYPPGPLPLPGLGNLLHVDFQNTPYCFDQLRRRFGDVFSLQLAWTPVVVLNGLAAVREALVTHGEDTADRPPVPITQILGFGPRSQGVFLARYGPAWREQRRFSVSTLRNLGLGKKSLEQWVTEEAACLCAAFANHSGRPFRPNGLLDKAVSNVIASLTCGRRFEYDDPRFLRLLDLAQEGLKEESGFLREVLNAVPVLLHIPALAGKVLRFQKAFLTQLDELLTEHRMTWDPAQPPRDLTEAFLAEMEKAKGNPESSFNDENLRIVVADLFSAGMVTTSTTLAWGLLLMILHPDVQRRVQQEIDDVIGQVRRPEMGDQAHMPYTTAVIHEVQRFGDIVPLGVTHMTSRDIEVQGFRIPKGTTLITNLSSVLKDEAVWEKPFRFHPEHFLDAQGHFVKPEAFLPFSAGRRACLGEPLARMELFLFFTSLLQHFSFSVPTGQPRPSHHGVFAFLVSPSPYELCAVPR

CYP2D6 (HLM) [2] = target: T2, CYP2D6 (HLM); experiment: cocktail probe-substrate assay, HPLC
CYP2C9 (HLM) [3] = target: T3, CYP2C9 (HLM) (Homo sapiens, UniProt P11712); experiment: HPLC-UV of 4-hydroxytolbutamide
T3 sequence (P11712 whole entry): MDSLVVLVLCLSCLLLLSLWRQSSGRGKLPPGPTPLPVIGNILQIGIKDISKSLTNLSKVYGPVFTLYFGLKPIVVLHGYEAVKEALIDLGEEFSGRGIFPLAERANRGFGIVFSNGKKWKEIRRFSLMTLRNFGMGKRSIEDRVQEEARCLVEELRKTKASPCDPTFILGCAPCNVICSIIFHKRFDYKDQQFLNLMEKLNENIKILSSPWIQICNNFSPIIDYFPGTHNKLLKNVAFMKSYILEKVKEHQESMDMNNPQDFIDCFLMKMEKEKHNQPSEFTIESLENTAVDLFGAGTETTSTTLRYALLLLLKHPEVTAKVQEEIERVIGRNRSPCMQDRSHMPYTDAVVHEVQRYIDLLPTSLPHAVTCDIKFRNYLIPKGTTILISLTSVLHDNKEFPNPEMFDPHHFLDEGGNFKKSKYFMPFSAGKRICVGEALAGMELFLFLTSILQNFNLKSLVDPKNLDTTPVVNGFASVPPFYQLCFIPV

CYP2C9 (HLM) [4] = target: T3, CYP2C9 (HLM); experiment: cocktail probe-substrate assay, HPLC

CYP2E1 (HLM), sequence (P05181 whole entry): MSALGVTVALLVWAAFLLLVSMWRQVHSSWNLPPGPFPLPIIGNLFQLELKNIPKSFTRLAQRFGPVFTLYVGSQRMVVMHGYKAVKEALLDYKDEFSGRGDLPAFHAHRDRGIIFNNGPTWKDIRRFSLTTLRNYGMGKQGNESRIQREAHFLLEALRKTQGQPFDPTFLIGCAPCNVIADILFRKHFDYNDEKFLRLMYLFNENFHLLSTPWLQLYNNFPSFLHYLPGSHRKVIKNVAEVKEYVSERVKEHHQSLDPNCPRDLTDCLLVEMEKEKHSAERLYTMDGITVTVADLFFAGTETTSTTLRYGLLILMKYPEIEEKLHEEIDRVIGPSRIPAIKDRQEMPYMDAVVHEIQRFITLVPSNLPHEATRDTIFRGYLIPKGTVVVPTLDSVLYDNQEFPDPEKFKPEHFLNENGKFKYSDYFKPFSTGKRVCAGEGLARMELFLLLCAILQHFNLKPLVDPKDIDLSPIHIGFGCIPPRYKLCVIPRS

IC50 (CYP2E1 (HLM)): 66.3 µM
IC50 (CYP1A2 (HLM)): > 100 µM
IC50 (CYP3A4 (HLM)): 81.5 µM
Ki (CYP2D6 (HLM) [1]): 25.4 µM
IC50 (CYP2D6 (HLM) [2]): 11.9 µM
Ki (CYP2C9 (HLM) [3]): 5.64 µM
IC50 (CYP2C9 (HLM) [4]): 8.18 µM
Structure (SMILES): COc1cc2c(cc1OC)-c1cc3ccc4c(c3c[n+]1CC2)OCO4 [Epiberberine]

— article PMC5749554 (Drug Design, Development and Therapy, 2017)
